# Reference: patent US6362212B1, “Oxime derivative and bactericide containing the same as active ingredient” (Shionogi & Company, Ltd., priority 1994, dated 2002)
# How the values were obtained:
# Format in all cases: in vivo
# Sphaerotheca fuliginea = experiment: Controlling effect on Sphaerotheca fuliginea by foliage application (pot experiment); settings: foliage spray on cucumber (cv. TSUKUBASHIROIBO) first leaves, infected area after 10 days in greenhouse at 20° C.
# Outline: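 First leaves of cucumber seedlings, 2-3 weeks old, were sprayed with compound (DMF solution diluted in water with spreader). They were inoculated 24 h later with a Sphaerotheca fuliginea conidia spray and kept 10 days at 20° C in a greenhouse. Percent control was calculated from infected leaf area.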
# [1] = tested on: Erysiphe graminis f. sp. tritici; experiment: Controlling effect on Erysiphe graminis f. sp. tritici by foliage application (pot experiment); settings: foliage spray on wheat (cv. NORIN No. 61) seedlings, infected area after 10 days in greenhouse at 20° C.
# Outline: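 Wheat seedlings (cv. NORIN No. 61, 2-3 weeks old) sprayed with compound in DMF diluted in water with spreader, then inoculated with conidia 24 hours later. Kept in greenhouse at 20 °C for 10 days; percent control calculated from infected leaf area.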
# Puccinia coronata = experiment: Controlling effect on Puccinia coronata by foliage application (pot experiment); settings: foliage spray on oat (cv. PC-38) seedlings, infected area after 1 day moist chamber and 8 days greenhouse at 20° C.
# Description: The following Test Examples illustrate the effects of the fungicide of the present invention. (I. Controlling effects on various plant diseases by foliage application (pot experiment)) A test compound was dissolved in a small amount of N,N-dimethylformamide, and the solution was diluted to a given concentration with distilled water containing a spreader. Thus, a liquid sample to be tested was prepared. The liquid sample was sprayed to test plants, and 24 hours thereafter, pathogens were inoculated by the method described below. […] The seeds of oat (cv.: PC-38) were sown in plastic cups (each 9 cm in diameter), followed by cultivation for 2 to 3 weeks. The test compound in the form of a solution or suspension was sprayed to the seedlings. Spores of Puccinia coronata cultured on oat leaves were collected, diluted about 10-fold with talc, and sprayed to the test plants to inoculate the plants with the pathogen. After the inoculation, the plants were kept in a moist chamber at 20° C. for 1 day and then in a greenhouse at 20° C. for 8 days. The infected area on the leaf was observed, and the percent control was calculated.
# Pyricularia oryzae = settings: foliage spray on rice seedlings (cv. […]), number of lesions six days after the inoculation
# [2] = tested on: Pseudoperonospora cubensis; experiment: Controlling effect on Pseudoperonospora cubensis by foliage application (pot experiment); settings: foliage spray on cucumber (var. TSUKUBASHIROIBO) first leaves, lesion area after 10 days in moist chamber at 20° C.
# Description: The following Test Examples illustrate the effects of the fungicide of the present invention. (I. Controlling effects on various plant diseases by foliage application (pot experiment)) A test compound was dissolved in a small amount of N,N-dimethylformamide, and the solution was diluted to a given concentration with distilled water containing a spreader. Thus, a liquid sample to be tested was prepared. The liquid sample was sprayed to test plants, and 24 hours thereafter, pathogens were inoculated by the method described below. […] The seeds of cucumber (var.: […]) were sown in plastic cups (each 9 cm in diameter), followed by cultivation for 2 to 3 weeks. The test compound in the form of a solution or suspension was sprayed to the surface of their first leaves, and a zoosporangia suspension of Pseudoperonospora cubensis cultured on cucumber leaves was dropped on the above leaf surfaces to inoculate the test plants with the pathogen. After the inoculation, the plants were kept in a moist chamber at 20° C. for 10 days. Then, the area of the lesions around the inoculum were observed and the percent control was calculated.
smiles,measurement,setting,value
"CON=C(c1ccno1)c1ccccc1COc1cc(C)ccc1C (single isomer, unassigned) [536A]",Controlling effect on Sphaerotheca fuliginea by foliage application at 500 ppm (percent control),Sphaerotheca fuliginea,100 percent control
same,Controlling effect on ErYsiphe graminis f. sp. tritici by foliage application at 500 ppm (percent control),[1],97 percent control
same,Controllng effect on Puccinia coronata by foliage application at 500 ppm (percent control),Puccinia coronata,90 percent control
CON=C(C1=NCCN1C)c1ccccc1COc1cc(C)ccc1C [Compound No. 1136],Controlling effect on Sphaerotheca fuliginea by foliage application at 500 ppm (percent control),Sphaerotheca fuliginea,100 percent control
same,Controlling effect on ErYsiphe graminis f. sp. tritici by foliage application at 500 ppm (percent control),[1],90 percent control
same,Controllng effect on Puccinia coronata by foliage application at 500 ppm (percent control),Puccinia coronata,90 percent control
CON=C(c1ccccc1CON=C(C)c1cccc(C(F)(F)F)c1)C1SCCN1C (stereo not shown) [Compound No. 2839],Controlling effect on Sphaerotheca fuliginea by foliage application at 500 ppm (percent control),Sphaerotheca fuliginea,100 percent control
same,Controlling effect on PYricularia orYzae by foliage application at 500 ppm (percent control),Pyricularia oryzae,90 percent control
same,Controlling effect on Pseudoperonospora cubensis by foliage application at 500 ppm (percent control),[2],95 percent control
same,Controlling effect on ErYsiphe graminis f. sp. tritici by foliage application at 500 ppm (percent control),[1],97 percent control
CON=C(c1ccccc1COc1cccnc1Cl)n1ccnc1 [compound 57],Controlling effect on Sphaerotheca fuliginea by foliage application at 500 ppm (percent control),Sphaerotheca fuliginea,90 percent control
same,Controlling effect on ErYsiphe graminis f. sp. tritici by foliage application at 500 ppm (percent control),[1],70 percent control
same,Controllng effect on Puccinia coronata by foliage application at 500 ppm (percent control),Puccinia coronata,90 percent control
C=CCON=C(c1ccccc1COc1ccccc1)n1cccn1 [compound 298],Controllng effect on Puccinia coronata by foliage application at 500 ppm (percent control),Puccinia coronata,70 percent control
CON=C(c1nnco1)c1ccccc1COc1cccc(Cl)c1 [compound 706],Controlling effect on Sphaerotheca fuliginea by foliage application at 500 ppm (percent control),Sphaerotheca fuliginea,100 percent control
same,Controlling effect on PYricularia orYzae by foliage application at 500 ppm (percent control),Pyricularia oryzae,70 percent control
same,Controlling effect on Pseudoperonospora cubensis by foliage application at 500 ppm (percent control),[2],100 percent control
same,Controlling effect on ErYsiphe graminis f. sp. tritici by foliage application at 500 ppm (percent control),[1],90 percent control
CCc1cccc(OCc2ccccc2C(=NOC)c2nnco2)c1 [compound 716],Controlling effect on Sphaerotheca fuliginea by foliage application at 500 ppm (percent control),Sphaerotheca fuliginea,100 percent control
same,Controlling effect on PYricularia orYzae by foliage application at 500 ppm (percent control),Pyricularia oryzae,70 percent control
same,Controlling effect on Pseudoperonospora cubensis by foliage application at 500 ppm (percent control),[2],100 percent control
same,Controlling effect on ErYsiphe graminis f. sp. tritici by foliage application at 500 ppm (percent control),[1],70 percent control
CON=C(c1nnco1)c1ccccc1COc1cc(Cl)ccc1Cl [compound 731],Controlling effect on Sphaerotheca fuliginea by foliage application at 500 ppm (percent control),Sphaerotheca fuliginea,100 percent control
same,Controlling effect on PYricularia orYzae by foliage application at 500 ppm (percent control),Pyricularia oryzae,70 percent control
same,Controlling effect on Pseudoperonospora cubensis by foliage application at 500 ppm (percent control),[2],100 percent control
same,Controlling effect on ErYsiphe graminis f. sp. tritici by foliage application at 500 ppm (percent control),[1],70 percent control
CON=C(c1noc(C)n1)c1ccccc1COc1ccc(C)cc1 [compound 914],Controllng effect on Puccinia coronata by foliage application at 500 ppm (percent control),Puccinia coronata,97 percent control
CON=C(c1ccccc1COc1ccccc1)c1nnnn1C [compound 1001],Controllng effect on Puccinia coronata by foliage application at 500 ppm (percent control),Puccinia coronata,70 percent control
CON=C(C1=NCCN1C)c1ccccc1COc1cccc(C)c1 [compound 1113],Controllng effect on Puccinia coronata by foliage application at 500 ppm (percent control),Puccinia coronata,70 percent control
CON=C(c1nnn(C)n1)c1ccccc1COc1ccccc1 [compound 2001],Controlling effect on Sphaerotheca fuliginea by foliage application at 500 ppm (percent control),Sphaerotheca fuliginea,70 percent control
same,Controllng effect on Puccinia coronata by foliage application at 500 ppm (percent control),Puccinia coronata,70 percent control
